# Reference: patent US20230265483A1, “METHODS FOR TESTING ANDEXANET POTENCY” (Alexion Pharmaceuticals, Inc., priority 2020, published 2023)
# Key:
# [1] = target: T1, bovine fXa (BFXa) (Bos taurus, UniProt P00743); assay: Inhibition of bovine fXa by betrixaban; type: biochemical; conditions: in words
# T1 construct: purchased Hyphen BioMed (France) BE1010/BE101K
# [2] = target: T2, BFXa (Bos taurus, UniProt P00743); assay: Direct potency assay with BFXa/betrixaban mixture; type: biochemical, bovine; conditions: BFXa (1×)/betrixaban (1×) vs HFXa (1×)/betrixaban (1×), no andexanet
# T2 construct: purchased Hyphen BioMed (France) BE1010/BE101K
# T2 sequence (P00743 234-492 limits assumed): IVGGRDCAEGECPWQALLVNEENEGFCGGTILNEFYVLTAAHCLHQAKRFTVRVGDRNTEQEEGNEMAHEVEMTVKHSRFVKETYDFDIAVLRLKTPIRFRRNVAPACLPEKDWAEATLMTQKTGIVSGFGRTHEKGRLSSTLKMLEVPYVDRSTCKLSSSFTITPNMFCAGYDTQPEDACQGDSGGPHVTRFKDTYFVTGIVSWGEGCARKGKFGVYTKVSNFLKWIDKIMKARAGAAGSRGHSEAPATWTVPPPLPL
# T2 sequence (P00743 41-180 partner limits assumed): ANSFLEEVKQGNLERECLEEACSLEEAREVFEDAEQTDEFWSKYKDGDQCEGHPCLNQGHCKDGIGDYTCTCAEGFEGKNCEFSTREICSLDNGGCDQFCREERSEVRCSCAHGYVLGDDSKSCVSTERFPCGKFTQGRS
# Protocol: The stock solutions for HFXa, BFXa and betrixaban were first prepared separately. FXa/betrixaban mixture was prepared by mixing different volumes of the stock solutions of FXa and betrixban, resulting in HFXa/betrixaban or BFXa/betrixaban. The FXa/betrixaban mixture (50 μL) was added to the reaction mixture as described in the direct potency assay. The HFXa (1×)/betrixaban (1×) mixture (O) was used as a control.
# Preparation of fXa and Betrixaban (fXa Inhibitor) • a) Dilute the fXa to 50 μg/mL then further dilute to 1.0 μg/mL in assay buffer. • b) Dilute fXa inhibitor (226 μg/mL betrixaban stock) to 40 ng/mL in assay buffer as described in the table below. • c) Add equal volumes of diluted fXa and fXa inhibitor (betrixaban) into an appropriate container by combining 6 mL of FXa at 1.0 μg/mL and 6 mL of fXa inhibitor at 40 ng/mL. Mix well. • 4. Preparation of fXa and fXa Inhibitor Controls • a) Prepare the fXa control by mixing 100 μL of diluted fXa with 300 μL of assay buffer. • b) Prepare fXa inhibitor (betrixaban) control by mixing 200 μL of the fXa inhibitor mixture and 200 μL assay buffer. • 5. Transfer 50 μL/well of reference standard (RS), assay control (CTRL) and test samples (TS) to the assay plate. • 6. […] Read the microplate at 405 nm as the test wavelength and 490 nm as the reference wavelength. • 14. […]
# T1 sequence (P00743 234-492 limits assumed): as the sequence (P00743 234-492 limits assumed) above
# T1 sequence (P00743 41-180 partner limits assumed): as the sequence (P00743 41-180 partner limits assumed) above
smiles,measurement,setting,value
COc1ccc(NC(=O)c2ccc(C(=N)N(C)C)cc2)c(C(=O)Nc2ccc(Cl)cn2)c1 [betrixaban],potency of inhibition of bovine fXa compared with human fXa,[1],less potent
same,inhibition of BFXa activity (background in absence of andexanet),[2],less inhibition of BFXa activity
